Assay results from patent US11458127B2, “Methods of treating brain tumors using combination therapy” (SERVIER PHARMACEUTICALS LLC, priority 2017, dated 2022).
Where two headings read alike, the source gives them in different places.

Tests used:
2HG production = test: animal or person; conditions: po, read-out: Inhibition of 2HG production within the brain tumors
Procedure: Ivosidenib was orally dosed at 150 mg/kg, twice daily, for Groups 3-5.

mutant IDH1 proteins [1] = conditions: cellular assays; cited from earlier work
mutant IDH1 proteins [2] = conditions: biochemical assays; cited from earlier work
mIDH1 cells = conditions: in vitro; R. J. Molenaar et al. 2015; cited from earlier work
mutant IDH1 (mIDH1) = conditions: cited from earlier work
mIDH1-driven gliomas = conditions: some model systems; D. Rohle et al. 2013; cited from earlier work
mutant IDH2 (mIDH2) = conditions: cited from earlier work

Row | SMILES | inhibition at 150 mg/kg (2HG production) | Activity on mutant IDH1 proteins (mutant IDH1 proteins [1]) | Activity on mutant IDH1 proteins (mutant IDH1 proteins [2]) | Sensitivity of treated mIDH1 cells to radiation therapy (mIDH1 cells) | Inhibition of mutant IDH1 (mutant IDH1 (mIDH1)) | Effect on growth of mIDH1-driven gliomas (mIDH1-driven gliomas) | Inhibition of mutant IDH2 (mutant IDH2 (mIDH2))
1 | N#Cc1ccnc(N2C(=O)CC[C@H]2C(=O)N(c2cncc(F)c2)[C@H](C(=O)NC2CC(F)(F)C2)c2ccccc2Cl)c1 [Ivosidenib, (S)—N—((S)-1-(2-Chlorophenyl)-2-(3,3-difluorocyclobutylamino)-2-oxoethyl)-1-(4-cyanopyridin-2-yl)-N-(5-fluoropyridin-3-yl)-5-oxopyrrolidine-2-carboxamide] | > 98% | inhibitor of mutant IDH1 proteins | inhibitor of mutant IDH1 proteins | – | – | – | –
2 | Cc1ccccc1C(C(=O)NC1CCCCC1)N(C(=O)Cn1ccnc1C)c1cccc(F)c1 (stereo not shown) [AGI-5198] | – | – | – | desensitized to radiation therapy | inhibit mutant IDH1 (mIDH1) | can repress growth of mIDH1-driven gliomas in some model systems | not mutant IDH2 (mIDH2)
